Laboratory results from patent publication US12617795B2, “Substituted 6,7-dihydro-5H-pyrrolo[3,4-d]pyrimidines, 5,7-dihydrofuro[3,4-d]pyrimidines, and pyrido[2,3-d]pyrimidines as KCC2 modulators” (Astrazeneca AB, priority 2020, dated 2026).

What follows are compounds tested against T1, KCC2 (Homo sapiens, UniProt Q9H2X9) (assay: KCC2 thallium transport FLIPR-based assay (Tl+ influx in HEK293 cells expressing KCC2)). Conditions: 90 min compound incubation at RT, thallium flux at 120 s used to determine EC50.
T1 construct: expressed in transfected cells; host or cells: HEK293 cells electroporated (Maxcyte STX) with the pcDNA3.1 KCC2 plasmid
T1 sequence (Q9H2X9 1-1139): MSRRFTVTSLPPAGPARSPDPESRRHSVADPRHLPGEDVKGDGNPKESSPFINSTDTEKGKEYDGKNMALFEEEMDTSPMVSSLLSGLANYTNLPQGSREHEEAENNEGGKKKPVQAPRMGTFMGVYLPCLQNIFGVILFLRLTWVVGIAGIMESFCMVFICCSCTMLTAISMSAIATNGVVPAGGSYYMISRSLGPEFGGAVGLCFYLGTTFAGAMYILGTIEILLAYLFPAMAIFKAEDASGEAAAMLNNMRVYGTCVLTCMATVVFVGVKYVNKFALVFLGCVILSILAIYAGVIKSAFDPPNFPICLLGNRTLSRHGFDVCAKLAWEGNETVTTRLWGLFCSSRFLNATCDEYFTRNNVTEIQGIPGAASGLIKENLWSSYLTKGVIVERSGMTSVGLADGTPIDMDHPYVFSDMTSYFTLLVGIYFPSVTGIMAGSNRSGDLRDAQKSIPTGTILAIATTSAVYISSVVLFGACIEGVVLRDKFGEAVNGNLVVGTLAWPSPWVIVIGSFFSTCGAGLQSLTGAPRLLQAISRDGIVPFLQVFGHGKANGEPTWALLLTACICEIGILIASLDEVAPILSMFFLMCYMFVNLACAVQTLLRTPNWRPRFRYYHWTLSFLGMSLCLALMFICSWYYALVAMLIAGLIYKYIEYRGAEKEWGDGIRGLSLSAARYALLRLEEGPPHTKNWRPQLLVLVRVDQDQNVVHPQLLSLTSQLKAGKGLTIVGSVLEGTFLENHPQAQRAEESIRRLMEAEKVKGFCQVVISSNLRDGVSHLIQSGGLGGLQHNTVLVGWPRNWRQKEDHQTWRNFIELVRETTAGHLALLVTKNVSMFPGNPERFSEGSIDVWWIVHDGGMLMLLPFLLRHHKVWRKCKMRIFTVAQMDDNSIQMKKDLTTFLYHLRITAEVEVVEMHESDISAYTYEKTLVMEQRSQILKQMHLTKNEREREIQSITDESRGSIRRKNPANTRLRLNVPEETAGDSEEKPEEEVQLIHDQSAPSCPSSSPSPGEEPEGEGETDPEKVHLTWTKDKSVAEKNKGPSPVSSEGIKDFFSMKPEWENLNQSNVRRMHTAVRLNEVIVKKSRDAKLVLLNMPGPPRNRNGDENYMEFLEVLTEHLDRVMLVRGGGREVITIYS
Format: cell-based
Method: A thallium transport FLIPR-based assay was used to measure the ability of compounds to activate KCC2. KCC2 activity is assessed by measuring KCC2-dependent Tl^+ influx in a KCC2-expressing cell. The assay protocol was based on those described by Delpire et al (Proc Natl Acad Sci USA. 2009 Mar. 31; 106(13): 5383-5388) and Zhang et al (Journal of Biomolecular Screening 15(2): 2010).
KCC2 was synthesised and codon optimised by GeneArt based on the Uniprot sequence Q9H2X9. The final sequence was subcloned into pcDNA3.1.
HEK293 cells were grown in 10 layer cell stacks at 37° C., 5% CO2, in DMEM, 10% fetal calf serum and 2 mM Glutamine. The cells were detached by removing the media and washing the cell stack with 100 ml of PBS. The PBS was removed and 100 ml of 1× TrypLE was added and the cell stack returned to 37° C. for 5 min. The detached cells were then counted in a Vi Cell counter and spun for 10 min at 1250 rpm in a Sorval Legend centrifuge. The cells were diluted down in Maxcyte electroporation buffer at 4× the final concentration and spun as before. The cell pellet was resuspended at 1×10^8/cells per ml and electroporated in a Maxcyte Cl 2.2 bag on a Maxcyte STX machine via the HEK293 programme with 200 ug/ml of plasmid DNA. The cells were then allowed to recover for 30 min before adding to 500 ml of PBS and then counted again on the Vi Cell. The cells were then frozen down in planer controlled rate freeze in 90% complete media, 10% DMSO.
All reagents were dispensed using a Mulitdrop Combi unless stated otherwise. All FluXOR Invitrogen propriety buffer compositions are mentioned in tables below.
HEK293 KCC2 cells were harvested at a density of 3.33×10^5 cells/mL in complete media (DMEM, Sigma, D6546, 10% fetal calf serum and 1% Glutamax) and 30 μL per well seeded into 384-well PDL coated black-clear plates (Corning, 354663). Leave cells at RT for 20 mins to settle before incubating for 48 h at 37° C., 5% CO2. Following incubation, perform three wash steps in HBSS (Sigma, H6648) using a Biotek cell washer with the final aspiration leaving 20 μL HBSS residual volume in each well. A further 20 μL per well of thallium loading dye is then added (1 h, RT, protect from light). 5 μL of test compounds (100 μM top concentration, 1:2 dilutions, 12 point curve) were added using the FLIPR TETRA and incubated at RT for 90 min in the dark. Following compound incubation, the thallium flux response is read on FLIPR TETRA (ex. 515-575 nm) which is initiated by FLIRR TETRA dispensing 5 μL stimulus buffer into each well. Recordings are measured every 1 second for 120 seconds. Thallium flux at 120 s used to determine EC50.
Compound buffer: Assay buffer with 1 μL of bumetanide per 10 ml.

Compared with `CCC1CN(c2nc(Nc3ccc(C4CCCCC4)cc3)c3c(n2)C(=O)N(C(C)C)C3)CCO1` (stereo not drawn) [Example 21, 4-[(4-cyclohexylphenyl)amino]-2-(2-ethylmorpholin-4-yl)-6-(propan-2-yl)-5,6-dihydro-7H-pyrrolo[3,4-d]pyrimidin-7-one], `CC(C)N1Cc2c(Nc3ccc(C4CCCCC4)cc3)nc(N3CCOC(CO)C3)nc2C1=O` (stereo not drawn) [Example 31, 4-[(4-cyclohexylphenyl)amino]-2-[2-(hydroxymethyl)morpholin-4-yl]-6-(propan-2-yl)-5,6-dihydro-7H-pyrrolo[3,4-d]pyrimidin-7-one] is 1.8-fold higher in EC50: 2.64 µM for the first, 4.81 µM for the second. The first is the more potent here.

Compared with `CC(C)N1Cc2c(Nc3ccc(C4CCCCC4)cc3)nc(N(C)Cc3ccon3)nc2C1=O` [Example 22, 4-[(4-cyclohexylphenyl)amino]-2-{methyl[(1,2-oxazol-3-yl)methyl]amino}-6-(propan-2-yl)-5,6-dihydro-7H-pyrrolo[3,4-d]pyrimidin-7-one], `CC(C)N1Cc2c(Nc3ccc(C4CCCCC4)cc3)nc(N(C)Cc3cnccn3)nc2C1=O` [Example 33, 4-[(4-cyclohexylphenyl)amino]-2-{methyl[(prazin-2-yl)methyl]amino}-6-(propan-2-yl)-5,6-dihydro-7H-pyrrolo[3,4-d]pyrimidin-7-one] is 1.8-fold higher in EC50: 2.79 µM for the first, 5.01 µM for the second.

First: CC(C)N1Cc2c(Nc3ccc(C4CCCCC4)cc3)nc(N(C)CCc3ncon3)nc2C1=O [Example 23, 4-[(4-cyclohexylphenyl)amino]-2-{methyl[2-(1,2,4-oxadiazol-3-yl)ethyl]amino}-6-(propan-2-yl)-5,6-dihydro-7H-pyrrolo[3,4-d]pyrimidin-7-one]
Second: CC(C)N1Cc2c(Nc3ccc(C4CCCCC4)cc3)nc(N(C)CCc3ccccn3)nc2C1=O [Example 37, 4-[(4-cyclohexylphenyl)amino]-2-{methyl[2-(pyridin-2-yl)ethyl]amino}-6-(propan-2-yl)-5,6-dihydro-7H-pyrrolo[3,4-d]pyrimidin-7-one]
The EC50 of the first is 2.2-fold lower: 2.92 µM for the first, 6.3 µM for the second.

`CC(C)N1Cc2c(Nc3ccc(C4CCCCC4)cc3)nc(N3CCCOCC3)nc2C1=O` [Example 24, 4-[(4-cyclohexylphenyl)amino]-2-(1,4-oxazepan-4-yl)-6-(propan-2-yl)-5,6-dihydro-7H-pyrrolo[3,4-d]pyrimidin-7-one] and `CC(C)N1Cc2c(Nc3ccc(C4CCCCC4)cc3)nc(N3CCOC4(CCOCC4)C3)nc2C1=O` [Example 25, 4-[(4-cyclohexylphenyl)amino]-2-(1,9-dioxa-4-azaspiro[5.5]undecan-4-yl)-6-(propan-2-yl)-5,6-dihydro-7H-pyrrolo[3,4-d]pyrimidin-7-one] are within 1.5-fold of each other in EC50: 2.92 µM for the first, 3.41 µM for the second.

`COC1CCN(c2nc(Nc3ccc(C4CCCCC4)cc3)c3c(n2)C(=O)N(C(C)C)C3)C1` (stereo not drawn) [Example 26, 4-[(4-cyclohexylphenyl)amino]-2-(3-methoxypyrrolidin-1-yl)-6-(propan-2-yl)-5,6-dihydro-7H-pyrrolo[3,4-d]pyrimidin-7-one] and `CC(C)N1Cc2c(Nc3ccc(C4CCCCC4)cc3)nc(N3CCOC(CCO)C3)nc2C1=O` (stereo not drawn) [Example 27, 4-[(4-cyclohexylphenyl)amino]-2-[2-(2-hydroxyethyl)morpholin-4-yl]-6-(propan-2-yl)-5,6-dihydro-7H-pyrrolo[3,4-d]pyrimidin-7-one] are within 1.5-fold of each other in EC50: 3.5 µM for the first, 3.58 µM for the second.

`CCCN(CCC)c1nc(Nc2ccc(C3CCCCC3)cc2)c2c(n1)C(=O)N(C(C)C)C2` [Example 29, 4-[(4-cyclohexylphenyl)amino]-2-(dipropylamino)-6-(propan-2-yl)-5,6-dihydro-7H-pyrrolo[3,4-d]pyrimidin-7-one] and `CCN(CC)c1nc(Nc2ccc(C3CCCCC3)cc2)c2c(n1)C(=O)N(C(C)C)C2` [Example 34, 4-[(4-cyclohexylphenyl)amino]-2-(diethylamino)-6-(propan-2-yl)-5,6-dihydro-7H-pyrrolo[3,4-d]pyrimidin-7-one] are within 1.5-fold of each other in EC50: 3.89 µM for the first, 5.21 µM for the second.

First: CC(C)N1Cc2c(Nc3ccc(C4CCCCC4)cc3)nc(N(C)CC3CC3)nc2C1=O [Example 30, 4-[(4-cyclohexylphenyl)amino]-2-[(cyclopropylmethyl)(methyl)amino]-6-(propan-2-yl)-5,6-dihydro-7H-pyrrolo[3,4-d]pyrimidin-7-one]
Second: CC(C)N1Cc2c(Nc3ccc(C4CCCCC4)cc3)nc(N(C)CC3CCCO3)nc2C1=O (stereo not drawn) [Example 35]
The EC50 of the first is 1.6-fold lower: 4.05 µM for the first, 6.3 µM for the second.

First: CC(C)N1Cc2c(Nc3ccc(C4CCCCC4)cc3)nc(N3CCOCC3CO)nc2C1=O (stereo not drawn) [Example 32, 4-[(4-cyclohexylphenyl)amino]-2-[3-(hydroxymethyl)morpholin-4-yl]-6-(propan-2-yl)-5,6-dihydro-7H-pyrrolo[3,4-d]pyrimidin-7-one]
Second: CC(C)N1Cc2c(Nc3ccc(C4CCCCC4)cc3)nc(N3CCOC[C@H]3C(=O)O)nc2C1=O [Example 38, (3S)-4-{4-[(4-cyclohexylphenyl)amino]-7-oxo-6-(propan-2-yl)-6,7-dihydro-5H-pyrrolo[3,4-d]pyrimidin-2-yl}morpholine-3-carboxylic acid]
The EC50 of the first is 1.9-fold lower: 4.89 µM for the first, 9.34 µM for the second. The first is the more potent here.

Compared with `CC(C)N1Cc2c(Nc3ccc(C4CCCCC4)cc3)nc(N(C)CC(F)F)nc2C1=O` [Example 36, 4-[(4-cyclohexylphenyl)amino]-2-[(2,2-difluoroethyl)(methyl)amino]-6-(propan-2-yl)-5,6-dihydro-7H-pyrrolo[3,4-d]pyrimidin-7-one], `CC(C)N1Cc2c(Nc3ccc(C4CCCCC4)cc3)nc(-c3ccnc(C#N)c3)nc2C1=O` [Example 41, 4-(4-((4-cyclohexylphenyl)amino)-6-isopropyl-7-oxo-6,7-dihydro-5H-pyrrolo[3,4-d]pyrimidin-2-yl)picolinonitrile] is 12-fold lower in EC50: 6.3 µM for the first, 0.518 µM for the second.

Compared with `CC(=O)NCCC1CN(c2nc(Nc3ccc(C4CCCCC4)cc3)c3c(n2)C(=O)N(C(C)C)C3)CCO1` (stereo not drawn) [Example 39, N-[2-(4-{4-[(4-cyclohexylphenyl)amino]-7-oxo-6-(propan-2-yl)-6,7-dihydro-5H-pyrrolo[3,4-d]pyrimidin-2-yl}morpholin-2-yl)ethyl]acetamide], `CC(C)N1Cc2c(Nc3ccc(C4CCCCC4)cc3)nc(-c3ccnc(C4CC4)c3)nc2C1=O` [Example 42, 4-[(4-cyclohexylphenyl)amino]-2-(2-cyclopropylpyridin-4-yl)-6-(propan-2-yl)-5,6-dihydro-7H-pyrrolo[3,4-d]pyrimidin-7-one] is 16-fold lower in EC50: 9.9 µM for the first, 0.633 µM for the second. The second is the more potent here.

With `CC(C)c1ccc(Nc2nc(-c3ccncc3)nc3c2CN(C(C)C)C3=O)cc1` [Example 40, 6-isopropyl-4-((4-isopropylphenyl)amino)-2-(pyridin-4-yl)-5,6-dihydro-7H-pyrrolo[3,4-d]pyrimidin-7-one] the EC50 was 6.36 µM.
